Laboratory results as given in the supplement of paper PMC10307832.

What was measured:
Experiment in all cases: relative viability (nuclei count vs DMSO), 5 days (fraction); higher = more cells survive
[1] = compound: CCN(CCO)CCCC(C)Nc1ccnc2cc(Cl)ccc12 [Hydroxychloroquine] + CCNC(=O)c1noc(-c2cc(C(C)C)c(O)cc2O)c1-c1ccc(CN2CCOCC2)cc1 [Luminespib] (partner 0.01 µM)
Summary of the method: (§1)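 Relative viability was taken as the ratio of nuclei in treated wells to nuclei in vehicle wells. Lung cancer cell lines in 1536-well plates received compounds by pin tool one day after seeding, either one drug alone or a fixed anchor-drug dose plus five library-drug doses (not always all listed) in √10 steps. Nuclei were counted on 4× images after 5 days of treatment, and values are medians of duplicate plates.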

[2] = compound: CCN(CCO)CCCC(C)Nc1ccnc2cc(Cl)ccc12 [Hydroxychloroquine] + CC(C)C[C@H](NC(=O)[C@H](Cc1ccccc1)NC(=O)c1cnccn1)B(O)O [Bortezomib] (partner 0.002 µM)
Summary of the method: as §1

[3] = compound: CCN(CCO)CCCC(C)Nc1ccnc2cc(Cl)ccc12 [Hydroxychloroquine] + Cc1nc(Nc2ncc(C(=O)Nc3c(C)cccc3Cl)s2)cc(N2CCN(CCO)CC2)n1 [Dasatinib] (partner 0.075 µM)
Summary of the method: as §1

[4] = compound: CCN(CCO)CCCC(C)Nc1ccnc2cc(Cl)ccc12 [Hydroxychloroquine] + CC(=O)c1c(C)c2cnc(Nc3ccc(N4CCNCC4)cn3)nc2n(C2CCCC2)c1=O [Palbociclib] (partner 0.5 µM)
Summary of the method: as §1

Cell Line | relative viability ([1]; first compound 0.5 µM) | relative viability ([1]; first compound 1.581 µM) | relative viability ([1]; first compound 5 µM) | relative viability ([1]; first compound 15.81 µM) | relative viability ([1]; first compound 50 µM) | relative viability ([2]; first compound 0.5 µM) | relative viability ([2]; first compound 1.581 µM) | relative viability ([2]; first compound 5 µM) | relative viability ([2]; first compound 15.81 µM) | relative viability ([2]; first compound 50 µM) | relative viability ([3]; first compound 0.5 µM) | relative viability ([3]; first compound 1.581 µM) | relative viability ([3]; first compound 5 µM) | relative viability ([3]; first compound 15.81 µM) | relative viability ([3]; first compound 50 µM) | relative viability ([4]; first compound 0.5 µM) | relative viability ([4]; first compound 1.581 µM) | relative viability ([4]; first compound 5 µM) | relative viability ([4]; first compound 15.81 µM) | relative viability ([4]; first compound 50 µM)
HOP-62 | 1 | 0.987 | 1.01 | 1.09 | 1 | 0.652 | 0.9 | 0.751 | 0.945 | 1.02 | 0.57 | 0.601 | 0.717 | 0.636 | 0.58 | 0.486 | 0.429 | 0.444 | 0.487 | 0.548
NCI-H1915 | 0.756 | 0.788 | 0.94 | 1.12 | 0.915 | 1.07 | 0.953 | 1.02 | 0.923 | 1.03 | 0.337 | 0.281 | 0.305 | 0.331 | 0.305 | 0.532 | 0.495 | 0.559 | 0.568 | 0.542
NCI-H3122 | 0.11 | 0.0839 | 0.104 | 0.109 | 0.0905 | 0.981 | 1.01 | 1.05 | 1.05 | 1.07 | 0.879 | 0.858 | 0.894 | 0.92 | 0.867 | 0.208 | 0.193 | 0.194 | 0.234 | 0.21
NCI-H1651 | 0.843 | 0.817 | 0.89 | 0.739 | 0.963 | 0.947 | 0.932 | 0.866 | 0.982 | 0.943 | 0.421 | 0.554 | 0.427 | 0.436 | 0.396 | 0.536 | 0.5 | 0.517 | 0.567 | 0.54
PC-14 | 0.17 | 0.151 | 0.17 | 0.173 | 0.154 | 0.783 | 0.959 | 0.925 | 0.788 | 0.852 | 0.232 | 0.199 | 0.253 | 0.213 | 0.29 | 0.481 | 0.545 | 0.535 | 0.554 | 0.394
NCI-H647 | 0.204 | 0.141 | 0.132 | 0.234 | 0.142 | 1.07 | 1.19 | 0.876 | 1.15 | 0.813 | 0.226 | 0.214 | 0.168 | 0.194 | 0.184 | 0.418 | 0.439 | 0.41 | 0.282 | 0.366
SW 1573 | 0.399 | 0.153 | 0.203 | 0.174 | 0.193 | 0.966 | 1.17 | 0.931 | 0.947 | 1.1 | 0.465 | 0.379 | 0.506 | 0.414 | 0.676 | 0.369 | 0.359 | 0.374 | 0.34 | 0.38
NCI-H460 | 0.0311 | 0.0319 | 0.0298 | 0.0324 | 0.0362 | 1.08 | 1.05 | 1.1 | 1.39 | 1.36 | 0.576 | 0.481 | 0.457 | 0.527 | 0.599 | 0.129 | 0.148 | 0.149 | 0.115 | 0.227
